Test system: skin of the subject
Assay: Intradermal skin test for hypersensitivity to female reproductive hormones, case reports
Format: in vivo, human
Settings: for Skin test result, Case 2: person one; for Skin test result, Case 6 / Skin test result, Case 7 / Skin test result, Case 4 / Skin test result, Case 1 / Skin test result, Case 5: person; for Skin test result, Case 6: menopausal syndrome; for Skin test result, Case 6 / Skin test result, Case 7: severe hot flashes; for Skin test result, Case 7: menopause; for Skin test result, Case 4: recurrent habitual abortions and severe PMS; for Skin test result, Case 1: severe premenstrual headaches, insomnia, acne; for Skin test result, Case 5: premenopausal syndrome, severe hot flashes and night sweats
Method: The skin test included the use of three fractions of estrogen (E1, E2 and E3) and progesterone (P), along with suitable controls. Each hormone solution was intradermally administered at a volume of 20-160 μl.
Skin test method using estriol, estrone, estradiol and/or progesterone and monitoring the immediate, late and delayed immuno-reaction to the injected hormones
1. The hormones (Table 1) diluted in solvents (Table 2) and controls (Table 3) in the above described dosages were administered intradermally into subjects.
2. Timing of intradermal administration and evaluation of the skin reaction was dependent on the tested subject.
(i) In case of fertile woman: Intradermal administration of the hormones/controls initiated at the luteal phase of menstrual cycle;
Tracking (evaluation of skin reaction) was after 20 minutes, after 48 hours and daily during the next 30 day (or a complete menstrual cycle).
(ii) Other Cases (non-fertile subjects): Intradermal administration of the hormones/controls initiated at any time;
Tracking (evaluation of skin reaction) was after 20 minutes, after 48 hours and daily during the next 7 day.
3. Measurement of wheal diameter—The wheal is formed on the skin in response to the intradermal administration of the hormone. Since the wheal responses are rarely regular or circular the wheal diameter is calculated using the following formula I.
wheal diameter=(D+d)/2 Formula I: […]
where D is the maximum diameter and d is perpendicular diameter.
4. Comparison with the controls was as follows:
(i) In case of a negative reaction to histamine (wheal diameter smaller than 5 mm), the result indicates Familial Dysautonomia disease (the subject is advised to seek other treatment);
(ii) In case of a positive reaction to saline (wheal diameter equals or larger than 5 mm), the test should be repeated;
(iv) In case of a similar or smaller reaction (wheal diameter) as compared to solvent reaction, there is no sensitivity to the tested hormone and desensitization is optional;
(v) Exception—In case the skin reaction (wheal diameter) is larger than 20 mm, the subject should not be treated and is referred to testing of cancer, systemic auto-immune diseases and other serous diseases.
Following is a description of several cases of subjects which were diagnosed and treated according to the method of some embodiments of the invention. The concentrations of hormones used in the description of the following cases 1-7 and in Table 9 below were as follow:
E1 (Estrone)—3 mM (millimole/Liter); 0.811 grams/liter;
E2 —(estradiol)—1 mM (millimole/Liter); 0.3565 grams/liter;
E3 (estriol)—3 mM (millimole/Liter); 0.86514 grams/liter;
P (progesterone)—1 mM (millimole/Liter); 0.3144 grams/liter;

[1] = habitual abortions and severe PMS

Skin test result, Case 4 | Compound | Skin test result, Case 2 [1] | Skin test result, Case 3 (person two, habitual abortions and severe PMS) | Skin test result, Case 6 | Skin test result, Case 7 | Skin test result, Case 1 (BMI=31) | Skin test result, Case 5 | Skin test result, Case 1 (BMI=31, listed as Progesterone)
delayed-type hypersensitivity reaction | C[C@]12CC[C@@H]3c4ccc(O)cc4CC[C@H]3[C@@H]1C[C@@H](O)[C@@H]2O [estriol, Estriol] |  |  | Hypersensitivity (delayed type after 48 hours and 5 days) |  | delayed-type hypersensitivity reaction | delayed-type hypersensitivity reaction (after 48 hours) | 
delayed-type hypersensitivity reaction | CC(=O)[C@H]1CC[C@H]2[C@@H]3CCC4=CC(=O)CC[C@]4(C)[C@H]3CC[C@]12C [progesterone, Progesterone] | positive delayed-type hypersensitivity reaction |  |  | delayed-type (after 48 hours and 6 days) hypersensitivity reaction |  | delayed-type hypersensitivity reaction (after 48 hours) | delayed-type hypersensitivity reaction to estriol and estradiol, higher than to Progesterone

Compound | Skin test result, Case 4 | Skin test result, Case 2 [1] | Skin test result, Case 3 (person two, habitual abortions and severe PMS) | Skin test result, Case 6 | Skin test result, Case 7 | Skin test result, Case 1 (BMI=31) | Skin test result, Case 5 | Skin test result, Case 1 (BMI=31, listed as Progesterone)
17 beta Estradiol Valerate | delayed-type hypersensitivity reaction | positive delayed-type hypersensitivity reaction | delayed-type hypersensitivity reaction | Hypersensitivity (delayed type after 48 hours and 5 days) | delayed-type (after 48 hours and 6 days) hypersensitivity reaction | delayed-type hypersensitivity reaction |  | 

— US20110262365A1 (priority 2008, published 2011)
